Patent US8546404B2, “Compounds that are ERK inhibitors” (Merck Sharp & Dohme, priority 2005, dated 2013)

Key:
[1] = Cassette Accelerating Rapid Rat Screen (CARRS), AUC during the first 6 hours; assay type: in vivo, Male Sprague-Dawley rats; details: male, Sprague-Dawley, plasma, 10 mg/kg, PO, AUC during the first 6 hours (AUC6hr)
Protocol: The AUC (Area Under the Concentration-Time Curve During the First 6 Hours (AUC6hr) in Table 30 Below was Determined Using the Protocol of Cassette Accelerating Rapid Rat Screen (CARRS)
Animal Dosing and Sample Collection
Male Sprague-Dawley rats (Charles River, Co.) were pre-cannulated (femoral artery) in order to facilitate precise blood sampling times, and to reduce the stress on the animals caused by serial bleedings. Following an overnight fast, two rats were dosed orally with one compound at a dose of 10 mg/kg in a 5-mL/kg dose volume. Blood was collected into heparin-containing tubes serially from each animal at 0.5, 1, 2, 3, 4 and 6 h post-dosing and centrifuged to generate plasma. Approximately 100 μL of plasma were collected at the individual time points. The plasma samples were stored at −20° C. until analysis.
Plasma Sample and Standard Curve Preparation
A set of 12 rat plasma samples was generated for each NCE (i.e. 6 timepoints and n=2 rats). These 12 samples were pooled across the two rats at each timepoint to provide 6 pooled samples (one sample per time point) for each NCE. The pooled samples were assayed as cassettes of six (36 samples total) to provide data on the six compounds. The 50-μL aliquots of the 36 plasma samples were placed into individual wells of a 96-well plate. An additional compound (often a structural analog of the test compounds) was selected as the internal standard. A mini-calibration curve was prepared (three points plus a zero) for each compound assayed. Drug-free rat plasma was measured into 1-mL aliquots and each aliquot was spiked with known concentrations of the compounds to generate standards of the desired concentrations. The concentrations of the standards were chosen to bracket the expected concentration of the pooled samples based on historical data from previous studies on other compounds. For this work, the standards were set to contain concentrations of 25, 250 and 2500 ng NCE/mL plasma. The plasma standards were precipitated in duplicate along with the samples. Protein precipitation occurred after addition of 150 μL of acetonitrile containing the internal standard at a concentration of 1 ng/mL into each sample well using the Tomtec Quadra 96 system. The precipitated samples and standards were vortexed and centrifuged in the 96-well plate. Approximately 50-100 μL of the supernatant were removed and placed into a fresh 96-well plate using the Tomtec Quadra 96 system. A volume of 5-10 μL of the supernatant was used for analysis by HPLC-MS/MS. The mini-standard curve was run in duplicate, once before and once after the samples. Thus, a total of 14 study samples plus standards were analyzed per compound. In addition, solvent blanks were injected before and after each set of 14 and after the highest calibration standard for each compound; therefore, a total of 103 injections were made into each HPLC system for each set of six compounds. Multiple solvent blank injections could be made from a single well. Twelve solvent blank wells were designated in each 96-well plate. Thus, one batch (cassette) of six NCEs was prepared and assayed using one 96-well plate format.
All the compounds were analyzed using selected reaction monitoring (SRM) methods with LC/MS/MS instruments. Once the method development had been completed, the assay was quickly set up using a standard injection sequence template for the CARRS assay.

[2] = target: fully phosphorylated, active Mouse ERK2 protein (Mus musculus (Mouse), UniProt P63085); assay: Active ERK2 Assay (IMAP format); assay type: biochemical; details: read-out: AERK2 IC50
Chain of fully phosphorylated, active Mouse ERK2 protein (P63085 whole entry): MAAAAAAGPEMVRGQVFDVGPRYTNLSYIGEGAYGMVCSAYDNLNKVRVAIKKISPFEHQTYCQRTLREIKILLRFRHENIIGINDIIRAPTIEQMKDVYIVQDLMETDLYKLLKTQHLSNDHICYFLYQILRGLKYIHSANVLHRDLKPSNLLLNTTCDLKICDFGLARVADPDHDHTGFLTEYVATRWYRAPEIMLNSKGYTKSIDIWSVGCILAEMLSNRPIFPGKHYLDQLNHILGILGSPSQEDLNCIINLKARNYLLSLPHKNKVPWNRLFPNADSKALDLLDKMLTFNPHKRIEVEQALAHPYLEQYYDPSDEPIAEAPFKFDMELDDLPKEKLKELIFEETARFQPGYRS
Protocol: Activated ERK2 activity was also determined in the IMAP assay format using the procedure outlined above. […] Reactions proceeded for 30 minutes before termination by addition of 60 μl IMAP detection beads in binding buffer. Plates were read as above after 30 minute binding equilibration.

SMILES | AUC [1] [µM·h] | IC50 [2] [nM]
CO[C@@]1(C(=O)Nc2ccc3[nH]nc(-c4ccnc(C5CC5)c4)c3c2)CCN(CC(=O)N2CC=C(c3ccc(-c4ncccn4)cc3)CC2)C1 [Example 459] | 1.2 | 2.5
CO[C@@]1(C(=O)Nc2ccc3[nH]nc(-c4ccc(F)cc4)c3c2)CCN(CC(=O)N2CCC(c3ccc(-c4ncccn4)cc3)CC2)C1 [Example 479] | 2.2 | 9.1
CS[C@@]1(C(=O)Nc2ccc3[nH]nc(-c4ccc(F)cc4)c3c2)CCN(CC(=O)N2CC=C(c3ccc(-c4ncccn4)cc3)CC2)C1 [Example 613] | 25.9 | 10
CCNc1nnc(-c2ccc(C3=CCN(C(=O)CN4CC[C@@](OC)(C(=O)Nc5ccc6[nH]nc(-c7ccc(F)cc7)c6c5)C4)CC3)c(F)c2)o1 [Example 622, 1-(2-{4-[4-(5-Ethylamino-[1,3,4]oxadiazol-2-yl)-2-fluoro-phenyl]-3,6-dihydro-2H-pyridin-1-yl}-2-oxo-ethyl)-3-methoxy-pyrrolidine-3-carboxylic acid [3-(4-fluoro-phenyl)-1 indazol-5-yl]-amide] | 1.13 | 5
CO[C@@]1(C(=O)Nc2ccc3[nH]nc(-c4ccc(F)cc4)c3c2)CCN(CC(=O)N2CC=C(c3ccc(-c4ncccn4)cc3F)CC2)C1 [Example 825] | 1.1 | 20
